By Kd is commonly meant the equilibrium constant for the complex coming apart. Lower therefore signals tighter binding.

The source of these data is publication PMC7180738, “Design, Synthesis and Characterization of a New Series of Fluorescent Metabotropic Glutamate Receptor Type 5 Negative Allosteric Modulators” (Molecules, 2020).

This test addresses T1, mGlu5bR (metabotropic glutamate receptor type 5) (Rattus norvegicus, UniProt P31424).
T1 construct: gene Grm5; mGlu5bR^NL: NanoLuc fused at the N terminus of rat mGlu5bR, expressed in HEK293T cells
Nature of the test: NanoBRET saturation binding in living HEK293T cells, displaced by […] MTEP; also NFAT-luciferase NAM assay. It is filed as cell-based. (Bioluminescence resonance energy transfer reports proximity on the nanometre scale.)

T1 sequence (P31424 21-1203): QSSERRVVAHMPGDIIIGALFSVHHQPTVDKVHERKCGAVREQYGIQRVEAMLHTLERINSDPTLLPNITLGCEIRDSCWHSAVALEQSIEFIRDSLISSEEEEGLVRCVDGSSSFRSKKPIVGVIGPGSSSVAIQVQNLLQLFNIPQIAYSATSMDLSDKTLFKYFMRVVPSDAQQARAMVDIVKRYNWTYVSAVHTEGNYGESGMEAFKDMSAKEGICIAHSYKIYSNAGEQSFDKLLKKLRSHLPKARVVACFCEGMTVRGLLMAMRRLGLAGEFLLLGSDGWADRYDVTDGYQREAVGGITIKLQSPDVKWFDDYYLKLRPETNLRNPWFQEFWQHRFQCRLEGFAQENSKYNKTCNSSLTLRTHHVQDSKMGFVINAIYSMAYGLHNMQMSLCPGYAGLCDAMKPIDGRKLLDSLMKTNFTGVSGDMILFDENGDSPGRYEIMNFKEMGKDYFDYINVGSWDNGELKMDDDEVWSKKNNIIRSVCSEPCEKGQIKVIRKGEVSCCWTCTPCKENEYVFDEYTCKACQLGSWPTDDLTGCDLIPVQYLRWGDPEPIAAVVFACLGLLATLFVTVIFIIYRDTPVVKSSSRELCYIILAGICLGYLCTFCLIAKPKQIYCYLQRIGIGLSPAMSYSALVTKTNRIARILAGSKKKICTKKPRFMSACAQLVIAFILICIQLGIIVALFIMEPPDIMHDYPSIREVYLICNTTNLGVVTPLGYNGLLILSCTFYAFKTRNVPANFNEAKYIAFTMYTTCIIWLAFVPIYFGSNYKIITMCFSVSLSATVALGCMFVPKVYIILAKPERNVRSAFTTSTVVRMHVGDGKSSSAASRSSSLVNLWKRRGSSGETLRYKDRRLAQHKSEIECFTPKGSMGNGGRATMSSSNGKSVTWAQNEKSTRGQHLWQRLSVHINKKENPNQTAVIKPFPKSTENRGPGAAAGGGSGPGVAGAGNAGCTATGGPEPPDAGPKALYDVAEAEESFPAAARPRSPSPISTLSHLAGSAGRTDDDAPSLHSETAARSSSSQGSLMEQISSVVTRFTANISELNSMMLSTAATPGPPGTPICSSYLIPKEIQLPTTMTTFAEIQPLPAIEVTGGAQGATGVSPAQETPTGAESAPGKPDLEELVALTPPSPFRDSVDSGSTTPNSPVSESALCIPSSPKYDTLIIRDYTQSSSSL

The molecule `COc1ccc(C2=[N+]3C(=C(CCCCc4cn(CCOCCOCCOCCOCCOCCNC(=O)COc5cncc(C#Cc6csc(C)n6)c5)nn4)c4ccc(-c5ccc(OC)cc5)n4[B-]3(F)F)C=C2)cc1` [4a, N-(17-(4-(4-(5,5-difluoro-3,7-bis(4-methoxyphenyl)-5H-4λ^4,5λ^4-dipyrrolo [1,2-c:2’,1’-f][1,3,2]diazaborinin-10-yl)butyl)-1H-1,2,3-triazol-1-yl)-3,6,9,12,15-pentaoxaheptadecyl)-2-((5-((2-methylthiazol-4-yl)ethynyl)pyridin-3-yl)oxy)acetamide] had a Kd of 0.84 ± 0.74 µM.
As to `COc1ccc(C2=[N+]3C(=C(CCCCc4cn(CCCCCCCCN(C)CCCCCNC(=O)COc5cncc(C#Cc6csc(C)n6)c5)nn4)c4ccc(-c5ccc(OC)cc5)n4[B-]3(F)F)C=C2)cc1` [4e, N-(5-((8-(4-(4-(5,5-difluoro-3,7-bis(4-methoxyphenyl)-5H-4λ^4,5λ^4-dipyrrolo[1,2-c:2’,1’-f][1,3,2]diazaborinin-10-yl)butyl)-1H-1,2,3-triazol-1-yl)octyl)(methyl)amino)pentyl)-2-((5-((2-methylthiazol-4-yl)ethynyl)pyridin-3-yl)oxy)acetamide], the Kd was 1.4 ± 1.2 µM.
